Source: patent publication US3945994A, “Novel acid compounds” (Gist-Brocades N.V., priority 1973, dated 1976)
Values after ≈ are worked out from the molar mass of the structure shown. Read-outs that look alike come from different tables or passages of the source.

What was measured:
Assay type in all cases: cell-based
[1] = test system: Bacillus subtilis ATCC 6633; conditions: ATCC6633, agar serial dilution, 24 hours at 37°C
[2] = test system: Staphylococcus aureus A 321; conditions: A321, agar serial dilution, 24 hours at 37°C
[3] = test system: Staphylococcus aureus A 355'; conditions: agar serial dilution, 24 hours at 37°C
[4] = test system: Staphylococcus aureus A 2000; conditions: A2000, agar serial dilution, 24 hours at 37°C
[5] = test system: Staphylococcus aureus A 2001; conditions: A2001, agar serial dilution, 24 hours at 37°C
[6] = test system: Diplococcus pneumoniae L 54; conditions: Streptococcus pneumoniae, L54; agar serial dilution, 24 hours at 37°C
[7] = test system: Pasteurella multocida A 723; conditions: A723, agar serial dilution, 24 hours at 37°C
[8] = test system: Klebsiella pneumoniae A 809; conditions: A809, agar serial dilution, 24 hours at 37°C
Salmonella dublin P 43 = conditions: Salmonella enterica, P43; agar serial dilution, 24 hours at 37°C
Escherichia coli U 20 = conditions: U20, agar serial dilution, 24 hours at 37°C
[9] = test system: Pseudomonas aeruginosa H 10; conditions: H10, agar serial dilution, 24 hours at 37°C
[10] = test system: Pseudomonas aeruginosa 2396; conditions: agar serial dilution, 24 hours at 37°C
[11] = test system: Pseudomonas aeruginosa Wyeth A 1058; conditions: WYETHA1058, agar serial dilution, 24 hours at 37°C
Proteus rettgeri A 821 [12] = conditions: Providencia rettgeri, A821; agar serial dilution, 24 hours at 37°C
Proteus mirabilis H 3 = conditions: H3, agar serial dilution, 24 hours at 37°C
Proteus mirabilis A 1200 = conditions: A1200, agar serial dilution, 24 hours at 37°C
[13] = test system: Salmonella typhimurium R172; conditions: Salmonella enterica, agar serial dilution, 24 hours at 37°C
[14] = test system: Streptococcus faecalis L 80; conditions: Enterococcus faecalis, L80; agar serial dilution, 24 hours at 37°C
Proteus morganii 2241 = conditions: Morganella morganii, agar serial dilution, 24 hours at 37°C
[15] = test system: Streptococcus haemolyticus A 1088; conditions: A1088, agar serial dilution, 24 hours at 37°C
[16] = test system: Haemophilus influenzae A 1030; assay: micro serial dilution test, MIC; conditions: A1030, micro serial dilution (between brackets), 30°C or 37°C, about 18 hours
Proteus rettgeri A 821 [17] = assay: micro serial dilution test, MIC; conditions: Providencia rettgeri, A821; micro serial dilution (between brackets), 30°C or 37°C, about 18 hours
Proteus mirabilis H3 = assay: micro serial dilution test, MIC; conditions: micro serial dilution (between brackets), 30°C or 37°C, about 18 hours
Proteus mirabilis A1200 = assay: micro serial dilution test, MIC; conditions: micro serial dilution (between brackets), 30°C or 37°C, about 18 hours

For CC1(C)S[C@@H]2C(NC(=O)C(N)c3ccccc3)C(=O)N2[C@H]1C(=O)O (stereo partly drawn) [ampicillin, 6-(α-aminophenylacetamido) penicillanic acid, reference compound], the MIC [1] was 0.025 µg/mL (≈ 0.0715 µM), the MIC [2] was 0.1 µg/mL (≈ 0.286 µM) and the MIC [3] was 1.5 µg/mL (≈ 4.29 µM). It also gave an MIC [4] of 1.5 µg/mL (≈ 4.29 µM), an MIC [5] of 0.75 µg/mL (≈ 2.15 µM) and an MIC [6] of 0.05 µg/mL (≈ 0.143 µM). It also gave an MIC [7] of 0.2 µg/mL (≈ 0.572 µM), an MIC [8] of 50 µg/mL (≈ 143 µM) and an MIC (Salmonella dublin P 43) of 0.8 µg/mL (≈ 2.29 µM). For the same compound, the MIC (Escherichia coli U 20) was 3 µg/mL (≈ 8.59 µM), the MIC [9] was greater than 100 µg/mL and the MIC [10] was 50 µg/mL (≈ 143 µM). It also gave an MIC [11] greater than 100 µg/mL, an MIC (Proteus rettgeri A 821 [12]) of 3 µg/mL (≈ 8.59 µM) and an MIC (Proteus mirabilis H 3) of 3 µg/mL (≈ 8.59 µM). It also gave an MIC (Proteus mirabilis A 1200) of 3 µg/mL (≈ 8.59 µM) and an MIC [13] of 3 µg/mL (≈ 8.59 µM).

With CC1(C)S[C@@H]2[C@H](NC(=O)C(C(=O)O)c3ccccc3)C(=O)N2[C@H]1C(=O)O (stereo partly drawn) [carbenicillin, reference compound] the MIC [1] was 0.06 µg/mL (≈ 0.159 µM), the MIC [2] was 0.75 µg/mL (≈ 1.98 µM) and the MIC [4] was 3 µg/mL (≈ 7.93 µM). The MIC [5] was 3 µg/mL (≈ 7.93 µM), the MIC [14] was 25 µg/mL (≈ 66.1 µM) and the MIC [6] was 0.5 µg/mL (≈ 1.32 µM). For the same compound, the MIC [7] was 0.25 µg/mL (≈ 0.661 µM), the MIC [8] was greater than 100 µg/mL and the MIC (Salmonella dublin P 43) was 1.5 µg/mL (≈ 3.96 µM). It also gave an MIC (Escherichia coli U 20) of 1.5 µg/mL (≈ 3.96 µM), an MIC [9] of 100 µg/mL (≈ 264 µM) and an MIC [10] of 25 µg/mL (≈ 66.1 µM). The MIC [11] was 25 µg/mL (≈ 66.1 µM), the MIC (Proteus morganii 2241) was 1.5 µg/mL (≈ 3.96 µM) and the MIC [15] was 0.25 µg/mL (≈ 0.661 µM). For the same compound, the MIC [13] was 6 µg/mL (≈ 15.9 µM), the MIC [16] was 90 µg/mL (≈ 238 µM) and the MIC (Proteus rettgeri A 821 [17]) was 0.12 µg/mL (≈ 0.317 µM). It also gave an MIC (Proteus mirabilis H3) of 0.6 µg/mL (≈ 1.59 µM) and an MIC (Proteus mirabilis A1200) of 0.45 µg/mL (≈ 1.19 µM).

Compound CC(=O)OCC1=C(C(=O)O)N2C(=O)[C@@H](NC(=O)CC#N)[C@H]2SC1 [cephacetril, reference compound] has an MIC [1] of 0.12 µg/mL (≈ 0.354 µM), an MIC [2] of 0.75 µg/mL (≈ 2.21 µM) and an MIC [3] of 1.5 µg/mL (≈ 4.42 µM). The MIC [4] was 1.5 µg/mL (≈ 4.42 µM), the MIC [5] was 0.5 µg/mL (≈ 1.47 µM) and the MIC [14] was 12.5 µg/mL (≈ 36.8 µM). The MIC [6] was 0.5 µg/mL (≈ 1.47 µM), the MIC [7] was 6 µg/mL (≈ 17.7 µM) and the MIC [8] was 6 µg/mL (≈ 17.7 µM). For the same compound, the MIC (Salmonella dublin P 43) was 12.5 µg/mL (≈ 36.8 µM), the MIC (Escherichia coli U 20) was 6 µg/mL (≈ 17.7 µM) and the MIC [9] was greater than 100 µg/mL. The MIC [10] was greater than 100 µg/mL, the MIC [11] was greater than 100 µg/mL and the MIC (Proteus rettgeri A 821 [12]) was 3 µg/mL (≈ 8.84 µM). It also gave an MIC (Proteus mirabilis H 3) of 12.5 µg/mL (≈ 36.8 µM), an MIC (Proteus mirabilis A 1200) of 12.5 µg/mL (≈ 36.8 µM) and an MIC (Proteus morganii 2241) greater than 100 µg/mL. The MIC [15] was 0.5 µg/mL (≈ 1.47 µM), the MIC [13] was 12.5 µg/mL (≈ 36.8 µM) and the MIC [16] was 30 µg/mL (≈ 88.4 µM).

For CC(=O)OCC1=C(C(=O)O)N2C(=O)[C@@H](NC(=O)[C@H](N)c3ccccc3)[C@H]2SC1 [cephaloglycin, 7-(α-aminophenylacetamido) cephalosporanic acid, reference compound], the MIC [1] was 0.25 µg/mL (≈ 0.617 µM), the MIC [2] was 12.5 µg/mL (≈ 30.8 µM) and the MIC [3] was 12.5 µg/mL (≈ 30.8 µM). It also gave an MIC [4] of 12.5 µg/mL (≈ 30.8 µM), an MIC [5] of 12.5 µg/mL (≈ 30.8 µM) and an MIC [14] greater than 100 µg/mL. The MIC [6] was 6 µg/mL (≈ 14.8 µM), the MIC [7] was 50 µg/mL (≈ 123 µM) and the MIC [8] was 6 µg/mL (≈ 14.8 µM). For the same compound, the MIC (Salmonella dublin P 43) was 12.5 µg/mL (≈ 30.8 µM), the MIC (Escherichia coli U 20) was 1.5 µg/mL (≈ 3.7 µM) and the MIC [9] was greater than 100 µg/mL. It also gave an MIC [10] greater than 100 µg/mL, an MIC [11] greater than 100 µg/mL and an MIC (Proteus rettgeri A 821 [12]) of 1.5 µg/mL (≈ 3.7 µM). For the same compound, the MIC (Proteus mirabilis H 3) was 25 µg/mL (≈ 61.7 µM), the MIC (Proteus mirabilis A 1200) was 12.5 µg/mL (≈ 30.8 µM) and the MIC (Proteus morganii 2241) was 100 µg/mL (≈ 247 µM). It also gave an MIC [15] of 0.25 µg/mL (≈ 0.617 µM), an MIC [13] of 12.5 µg/mL (≈ 30.8 µM) and an MIC [16] of 125 µg/mL (≈ 308 µM).

With Cc1nnc(SCC2=C(C(=O)O)N3C(=O)[C@@H](NC(=O)Cn4cnnn4)[C@H]3SC2)s1 [cephazolin, reference compound] the MIC [1] was 0.25 µg/mL (≈ 0.55 µM), the MIC [2] was 0.25 µg/mL (≈ 0.55 µM) and the MIC [3] was 1.5 µg/mL (≈ 3.3 µM). It also gave an MIC [4] of 0.75 µg/mL (≈ 1.65 µM), an MIC [5] of 0.5 µg/mL (≈ 1.1 µM) and an MIC [14] of 12.5 µg/mL (≈ 27.5 µM). The MIC [6] was 0.25 µg/mL (≈ 0.55 µM), the MIC [7] was 1.5 µg/mL (≈ 3.3 µM) and the MIC [8] was 1.5 µg/mL (≈ 3.3 µM). It also gave an MIC (Salmonella dublin P 43) of 1.5 µg/mL (≈ 3.3 µM), an MIC (Escherichia coli U 20) of 1.5 µg/mL (≈ 3.3 µM) and an MIC [9] greater than 100 µg/mL. The MIC [10] was greater than 100 µg/mL, the MIC [11] was greater than 100 µg/mL and the MIC (Proteus mirabilis H 3) was 6 µg/mL (≈ 13.2 µM). The MIC (Proteus mirabilis A 1200) was 6 µg/mL (≈ 13.2 µM), the MIC (Proteus morganii 2241) was 25 µg/mL (≈ 55 µM) and the MIC [15] was 0.12 µg/mL (≈ 0.264 µM). For the same compound, the MIC [13] was 3 µg/mL (≈ 6.6 µM) and the MIC (Proteus rettgeri A 821 [17]) was 1.2 µg/mL (≈ 2.64 µM).
